In patent US6559158B1, “Use of methylnaltrexone and related compounds to treat chronic opioid use side affects” (UR Labs, Inc., priority 1997, dated 2003):
Several values for one entry are separate records, joined by “and”; a condition that tells them apart may be missing. Identical values can stand only once. Entries after “also recorded” stand apart in the source; their conditions may differ.

Experiments:
[1] = Example 4: pharmacokinetics of 0.45 mg/kg intravenous methylnaltrexone; conditions: per subject (1-12) and Mean ± SD
Experimental: Sessions were separated by at least 1 week. Each session lasted approximately 7 hours, and the subjects received one of three injections: (1) placebo plus placebo, (2) placebo plus 0.05 mg/kg morphine, or (3) 0.45 mg/kg methylnaltrexone plus 0.05 mg/kg morphine. Injection I was given at the first session, and the subjects were blinded to the medication. Injections 2 and 3 were given in a random order, and the subjects and observers were blinded to the medication. Injection assignments were prepared by random selection on a computer and were sealed in envelopes.

[2] = system: chronic methadone subjects; assay: Example 2: side effects, vital signs and opioid withdrawal; assay type: in vivo, human
Experimental: Vital signs were obtained at 0, 5, 10, 30, 60, 90 and 120 min after each test drug administration. Illicit drug use was monitored by random urine drug screens.
To evaluate possible opioid withdrawal with methylnaltrexone, before and 10 min after the completion of test drug administration, subjects were asked to complete an objective checklist of withdrawal symptoms modified from Fraser et al. (J. Pharmacol Exp. Ther., 133:371-387 (1961)) and Jasinski (Drug Addiction J., 197-258 (1977)). Items rated (none, mild, moderate, severe) were yawning, lacrimation (excessive tearing), rhinorrhea (nasal discharge), perspiration, tremor, piloerection (goosebumps), and restlessness. The ratings for individual items were translated to a 0-3 scale and summed to give a total symptom score. The total scores before and after test drug administrations were compared between the groups. Potential opioid withdrawal symptoms were also monitored by an investigator throughout the study.

[3] = system: chronic methadone subjects with methadone-induced constipation; assay: Example 2: double-blind placebo-controlled trial of intravenous methylnaltrexone, laxation response; conditions: for methylnaltrexone dose received (infusion stopped at bowel movement): mean±SD, range 0.01-0.37
[4] = system: constipated methadone maintained patients; assay: Example 3: oral methylnaltrexone, laxation response; assay type: in vivo, human; conditions: for subjects who had a bowel movement: 4 subjects; for time to bowel movement after oral compound: mean±SD
Experimental: Since oral medication is a safer and more convenient way to deliver drugs than is intravenous administration, the efficacy of oral MNTX in relieving constipation in methadone maintained patients was evaluated. Twelve constipated adults (≦2 stool/week) were enrolled. Their daily methadone dose was 73.3±16.2 mg (41-100 mg), mean±SD (range). On day 1 at 9AM, subjects ingested 10 g lactulose (Solvay Pharmaceuticals) to assess oral-cecal transit time as described above, and a placebo capsule. On day 2 at 9AM, subjects again received lactulose, and a capsule containing methylnaltrexone (Mallinckrodt). Ascending oral methylnaltrexone doses (0.3, 1.0, and 3,0 mg/kg) were given to 3 groups of 4 subjects per group. Drug administrations were single-blinded to the subject. Laxation response and potential opioid withdrawal were recorded and blood samples were collected.

[5] = system: chronic methadone subjects; assay: Example 1: side effects, abdominal cramping and central opioid withdrawal; assay type: in vivo, human
Experimental: Vital signs were obtained at 0, 5, 10, 30, 60, 90 and 120 min after each test drug administration. For oral-cecal transit time measurement, 10 g lactulose (Solvay Pharmaceuticals, Marietta, Ga.) was administered orally at 09:00 h of Day 1, Day 5 and Day 8 for Subject 1; of Day 1 for Subject 2, and of Day 1, Day 3 and Day 5 for Subjects 3 and 4. Illicit drug use was monitored by random urine drug screens.
To evaluate possible opioid withdrawal with methylnaltrexone, subjects were asked to rate on a 5-point scale from 0 (not at all) to 4 (extremely) an […] checklist Withdrawal Scale (Fraser et al., J Pharmacol Exp. Ther., 133:371-387 (1961); Jasinski, Drug Addiction J., 197-258 (1977); both herein incorporated by reference). Items to be rated were: muscle cramps, flushing, painful joints, yawning, restless, watery eyes, runny nose, chills or gooseflesh, sick to stomach, sneezing, abdominal cramps, irritable, backache, tense and jittery, sweating, depressed/sad, sleepy, shaky (hands), hot or cold flashes, and bothered by noises. The ratings for individual items were summed for a total score for each scale. The total scores were compared before and after methylnaltrexone administration to see if there was a significant difference.

[6] = Subjects 3 and 4, 0.05-0.15 mg/kg iv twice daily, 4 days
[7] = iv methylnaltrexone, #1 0.45 mg/kg bid, #2 0.45 mg/kg, #3 and #4 0.05-0.15 mg/kg bid, iv methylnaltrexone 0.45 mg/kg
[8] = iv methylnaltrexone, #1 0.45 mg/kg bid, #2 0.45 mg/kg, #3 and #4 0.05-0.15 mg/kg bid, iv methylnaltrexone 0.05-0.15, bid mg/kg
[9] = iv methylnaltrexone, #1 0.45 mg/kg bid, #2 0.45 mg/kg, #3 and #4 0.05-0.15 mg/kg bid, iv methylnaltrexone 0.05-015, bid mg/kg
[10] = iv methylnaltrexone, #1 0.45 mg/kg bid, #2 0.45 mg/kg, #3 and #4 0.05-0.15 mg/kg bid, iv methylnaltrexone 0.45, bid mg/kg

With `C[N@+]1(CC2CC2)CC[C@]23c4c5ccc(O)c4O[C@H]2C(=O)CC[C@@]3(O)[C@H]1C5` [methylnaltrexone, N-methylnaltrexone bromide] the AUC ([1]; human, in vivo, iv, 0.45 mg/kg, AUC, area under the plasma concentration-time curve from 0 to 6 hours) was 549 ng·h/mL, the “AUC, area under the plasma concentration-time curve from 0 to 6 hours” value [1] was 694 ng·h/mL and 595 ng·h/mL and 637 ng·h/mL and 588 ng·h/mL and 1013 ng·h/mL and 634 ng·h/mL and 587 ng·h/mL and 747 ng·h/mL and 677 ng·h/mL and 742 ng·h/mL and 658 ng·h/mL and the “CL, total body clearance” value [1] was 51.7 L/h and 61.6 L/h and 41.6 L/h and 62.2 L/h and 68.1 L/h and 28.4 L/h and 73.2 L/h and 43.0 L/h and 45.2 L/h and 46.5 L/h and 47.8 L/h and 60.1 L/h. The “Cmax, peak free plasma concentration” value [1] was 2111 ng/mL and 4309 ng/mL and 1921 ng/mL and 2418 ng/mL and 5471 ng/mL and 4076 ng/mL and 3443 ng/mL and 2993 ng/mL and 3059 ng/mL and 3119 ng/mL and 4033 ng/mL and 2640 ng/mL, the “Fu, percentage of dose excreted unchanged in urine from 0 to 3 hours” value [1] was 33.8% and 36.5% and 43.5% and 26.6% and 49.6% and 73.4% and 44.4% and 46.0% and 39.5% and 40.4% and 35.1% and 34.0% and the “t1/2β, terminal half-life” value [1] was 2.077 h and 2.71 h and 3.385 h and 3.968 h and 1.42 h and 1.56 h and 1.903 h and 2.53 h and 1.875 h and 1.772 h and 1.6 h and 1.46 h. The “abdominal cramping during and immediately after injection” value ([2]; all subjects of methylnaltrexone group, iv) was “mild to moderate abdominal cramping”, the “change in blood pressure or heart rate from baseline” value ([2]; study drug infusion) was “No subject demonstrated any clinically significant change” and the “methylnaltrexone dose received (infusion stopped at bowel movement)” value ([3]; Day 1, iv) was 0.09 ± 0.10 mg/kg. The “methylnaltrexone dose received (infusion stopped at bowel movement)” value ([3]; Day 2, iv) was 0.10 ± 0.10 mg/kg, the “Bowel movement Satisfaction” value ([3]; MNTX group, end of study, listed as MNTX) was “Very satisfied; also recorded: Somewhat satisfied” and the “satisfaction with bowel movement activity at the end of the study” value ([3]; methylnaltrexone group) was “all 11 subjects were satisfied”. For the same compound, the “subjects whose stool was soft to loose and in large quantity” value ([3]; methylnaltrexone group) was “over 90%”, the “subjects who had a bowel movement” value ([4]; oral 0.3 mg/kg) was 3 out of 4 and the “time to bowel movement after oral compound” value (“time to bowel movement” for short) ([4]; oral 0.3 mg/kg, range 8-24 hr) was 18.0 ± 8.7 h. The “subjects who had a bowel movement” value ([4]; oral 1.0 mg/kg) was “All subjects”, the “time to bowel movement” value ([4]; oral 1.0 mg/kg, range 3-24 hr) was 12.3 ± 8.7 h and the “subjects who had a bowel movement” value ([4]; oral 3.0 mg/kg) was “All subjects”. For the same compound, the “time to bowel movement” value ([4]; oral 3.0 mg/kg, range 1.2-10 hr) was 5.2 ± 4.5 h, the side effects ([5]; Subject 1, 0.45 mg/kg iv, 7 days of administration) was “did not experience any significant side effects” and the abdominal cramping ([5]; Subject 1, 0.45 mg/kg iv, after each injection) was “mild abdominal cramping”. For the same compound, the “signs of systemic withdrawal (lacrimation, diaphoresis, mydriasis, hallucinations)” value ([5]; Subject 2, single dose 0.45 mg/kg iv) was “no signs of systemic withdrawal”, the abdominal cramping ([5]; Subject 2, single dose 0.45 mg/kg iv over 1 min) was “severe abdominal cramping” and the abdominal cramping [5, 6] was “mild abdominal cramping”. For the same compound, the side effects [5, 6] was “No significant side effects were observed”, the Central opioid withdrawal [5, 7] was “No” and the abdominal cramping [5, 7] was “Severe”. For the same compound, the Central opioid withdrawal [5, 8] was “No”, the abdominal cramping [5, 8] was “Mild” and the Central opioid withdrawal [5, 9] was “No”. For the same compound, the abdominal cramping [5, 9] was “Mild”, the Central opioid withdrawal [5, 10] was “No” and the abdominal cramping [5, 10] was “Mild”.
